Measured values: patent US10131693B2, “Bipodal-peptide binder” (GWANGJU INSTITUTE OF SCIENCE AND TECHNOLOGY, priority 2008, dated 2018)
Residues, ends and D or L forms follow the SMILES beside them.

Target: T1, fibronectin ED-B (Homo sapiens, UniProt P02751)
T1 construct: After transformation of pET28b vector carrying fibronectin ED-B into BL21 cells; His-tag (N); made in house; host or cells: E. coli BL21 (pET28b)
Assay: SPR (Biacore) affinity measurement to fibronectin ED-B
Type: binding
Procedure: Bipodal-peptide binder peptides specific to ED-B, VEGF or nAchR which were repetitively found in DNA sequencing were synthesized from Anigen Inc. (Korea). Affinity was measured using BlAcore X instrument (Biacore AB, Uppsala, Sweden). ED-B and nAchR were immobilized on streptavidin (SA) chip (Biacore) by injecting 2,000 RU biotinylated-EDB. VEGF was immobilized on CM5 chip (Biacore) using EDC/NHS. PBS (pH 7.4) was used as a running buffer. […].
. In addition to tryptophan zipper, GB1m3 and HP7 peptide as a type of other β-hairpin backbones were synthesized to contain N-terminal sequence (HCSSAV) and C-terminal sequence (IIRLEQ) of peptide 2 which is specifically bound to ED-B (Anigen, Korea). In other words, the sequence of bipodal-peptide binder in tryptophan zipper is […] (SEQ ID NO:21), and in GB1m3and HP7 are […] (SEQ ID NO:63) and […] (SEQ ID NO:64), respectively. Affinity of each peptide was measured using BIAcore X (Biacore AB, Uppsala, Sweden). […]
A leucine zipper motif as a structure stabilizing region instead of β-hairpin structure was synthesized to contain N-terminal sequence (HCSSAV) and C-terminal sequence (IIRLEQ) of peptide 2 which is specifically bound to ED-B, producing two peptides, […] […] Both peptides were formed as dimer, and their affinities were measured using BlAcore X (Biacore AB, Uppsala, Sweden). […]

T1 sequence (P02751 1271-1359 limits assumed): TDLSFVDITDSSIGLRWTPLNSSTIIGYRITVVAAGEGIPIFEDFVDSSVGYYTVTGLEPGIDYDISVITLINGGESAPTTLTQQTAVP

CC[C@H](C)[C@H](NC(=O)CNC(=O)[C@H](CCCCN)NC(=O)[C@H](Cc1c[nH]c2ccccc12)NC(=O)[C@@H](NC(=O)[C@H](Cc1c[nH]c2ccccc12)NC(=O)[C@H](CCCCN)NC(=O)CNC(=O)[C@H](CC(N)=O)NC(=O)[C@H](CCC(=O)O)NC(=O)[C@H](Cc1c[nH]c2ccccc12)NC(=O)[C@@H](NC(=O)[C@H](Cc1c[nH]c2ccccc12)NC(=O)[C@H](CO)NC(=O)CNC(=O)[C@@H](NC(=O)[C@H](C)NC(=O)[C@H](CO)NC(=O)[C@H](CO)NC(=O)[C@H](CS)NC(=O)[C@@H](N)Cc1c[nH]cn1)C(C)C)[C@@H](C)O)[C@@H](C)O)C(=O)N[C@H](C(=O)N[C@@H](CCCNC(=N)N)C(=O)N[C@@H](CC(C)C)C(=O)N[C@@H](CCC(=O)O)C(=O)N[C@@H](CCC(N)=O)C(=O)O)[C@@H](C)CC [Peptide 2 (fibronectin ED-B)] (H-HCSSAVGSWTWENGKWTWKGIIRLEQ-OH; N-terminus and C-terminus assumed)
Kd: 43 nM
